Laboratory results as given in US7704502B2, “Combinations of antibodies selective for DR5 and other therapeutic agents” (The UAB Research Foundation, priority 2000, dated 2010).

Key:
2LMP xenografts = assay: Analysis of apoptosis in xenografts (TUNEL); assay type: in vivo, athymic nude mice; conditions: day 14
Experimental: One group of mice was untreated. The xenografts were dissected for the study of apoptosis on day 14 after tumor cell injection. The reason for the substantial reduction in treatment intensity compared to our standard treatment protocol was to allow adequate tumor tissue for analysis on day 14. Tunel assay for apoptosis in tumor xenografts was performed as follows. Five-micron paraffin sections of tissue were mounted on Superfrost/Plus slides and heated at 58° C. for 1 h. Tissue sections were deparaffinized in three changes of xylene and rehydrated with one change of absolute ethanol, 95% ethanol, and 70% ethanol, each in 5-min increments. Then, the sections were placed in Tris-buffered saline (0.5M Tris base, 0.15 M NaCl, 0.0002% Triton X-100™, pH 7.6). Apoptotic nuclei were detected using an Apop Tag Peroxidase kit (Intergen, Purchase, N.Y.). Proteinase K (20 μg/ml in distilled deionized H2O) was added to the tissue specimens and incubated at room temperature for 15 min. Endogenous peroxidases were quenched with an aqueous solution of 3% hydrogen peroxide for 5 min. Sections were treated with an equilibration buffer for 30 min and then incubated with the TdT/enzyme (diluted in labeling reaction mix) for 1 h at 37° C. using parafilm covers. During this incubation, the TdT enzyme binds the 3′-OH ends of DNA fragments and catalyzes the addition of digoxigenin-labeled and unlabeled deoxynucleotides. Negative controls were incubated with distilled H2O (diluted in labeling reaction mix) instead of the TdT enzyme. A stop buffer was added for 10 min at room temperature to terminate the labeling reaction. An anti-digoxigenin conjugate was added to each slide for 30 min. The chromagen 3,3′ DAB was used to visualize the labeled 3′ OH end of DNA fragments. The slides were then rinsed in deionized water and lightly counterstained with hematoxylin, dehydrated using graded alcohols and xylene and coverlsipped using Permount. Approximately 10 random fields were evaluated for percentage of Tunel stained and percentage of intensely stained apoptotic bodies throughout the tissue.

PC-3 cells = assay: Combination study of TRA-8 with Paclitaxel (XTT); assay type: cell-based, human; conditions: Paclitaxel alone, concentrations of up to 200 nM
Experimental: Human prostate cancer cell line PC-3 is obtained from American Tissue Culture Collection (ATCC) and maintained in F-12K Nutrient Mixture (21127-022, Gibco BRL) containing 10% fetal bovine serum (FBS, Hyclone), 1% L-Glutamine-200 mM (25030-149, Gibco BRL) and 0.5% Penicillin Streptomycin Solution (P-7539, Sigma). RPMI1640 medium (MED-008, IWAKI) supplemented with 10% FBS and 0.5% Penicillin Streptomycin Solution is used in the following experiment. Exponentially growing PC-3 cells are collected by trypsinization and washed twice with fresh medium. The cells are then counted, resuspended in fresh medium at a density of 5×10^4 cells/ml and distributed in triplicate into flat-bottomed 96 well plates (3598, Corning-Coster) in a total volume of 100 μl/well one day before the start of the experiment. A representative anti-cancer drug, Paclitaxel (169-18611, Wako) dissolved in dimethylsulfoxide (10 mg/ml) is diluted in fresh medium and then added to the 96-well plates containing the cells at 50 μl/well. The final concentrations of dimethylsulfoxide are less than 0.1%. […] After incubation for a further 24 hr, 50 μl of Minimum Essential Medium (11095-098, Gibco BRL) containing 1 mg/ml of XTT and […] of PMS is added to the wells and the plates are incubated for 6 hr. OD450 is then measured by SPECTRA MAX 250 (Molecular Devices) and the cell viability is calculated as follows.

[1] = test system: 2LMP human breast cancer xenografts; assay: TRA-8 therapy alone or with chemotherapy or radiation, breast cancer xenografts; assay type: in vivo, athymic nude mice; conditions: aggregate of 6 experiments
Experimental: Athymic nude mice were injected s.c. with 3×10^7 2LMP cells. […] The growth of tumors was monitored over time. […] Tumor size and regression rates were determined.
Data from 6 independent experiments were analyzed by individual experiment. Treatment combinations were compared with respect to in vivo anti-tumor efficacy, i.e., inhibition of tumor growth, which was measured as three endpoints; extension of tumor doubling times, percentage of tumor regressions, and growth rates over time. The actual number of days at which the tumor doubled in surface area (product of two diameters) relative to baseline on day 7 after tumor cell injection was used in the doubling time analysis. The nonparametric Kruskal-Wallis test was used for median tumor doubling time comparisons between treatments. Fisher's exact test was used to compare the proportions of tumor regressions and relapse-free regressions across treatment groups. To determine if any combination therapy produced significant synergistic inhibition of tumor growth, i.e., more than additive, the growth curves from the serial area measurements were compared using a linear mixed model approach over the first 3 weeks after start of therapy (Lindsey, J. K. Models for Repeated Measurements, pp. 100-142, Oxford, 1993). To test for synergistic effects of the combination therapies, an interaction term was included in the model. If the interaction term was significant and the effect was inhibition of growth at a rate greater than additive then the interaction was considered synergistic.
A total of 166 animals, 10 treatment groups, and 6 independent experiments were included in the aggregate analysis. Treatment combinations were compared with respect to in vivo anti-tumor efficacy. The median tumor doubling times were analyzed using the Kruskal-Wallis test and Fisher's exact test was used to compare the proportions of tumor regressions and relapse-free regressions across treatment groups.

CLL B cells = assay: Apoptosis/cytotoxicity in CLL B cells in vitro; assay type: cell-based, human
Jurkat cells = assay: Apoptosis-inducing activity of humanized antibody (XTT, 12 hours); assay type: cell-based, human; conditions: serial 2-fold dilutions from 100 ng/ml
Experimental: Jurkat cells cultured in RPMI1640 medium with 10% FCS (Gibco BRL) at 37° C. for 3 days in the presence of 5% CO2 are dispensed into each well of a 96-well microplate (Sumitomo Bakelite) at 50 μl per well. […] Each of the solutions of the expression products thus adjusted to 100 ng/ml is used to produce serial dilutions by repeating serial 2-fold dilution with RPM11640 containing 10% FCS. […] After reacting at 37° C. for 12 hours, 50 μl of 25 μM PMS (phenazine methosulfate; Sigma Chemical Co.) containing 1 mg/ml XTT (2,3-bis[2-methoxy-4-nitro-5-sulfophenyl]-2H-tetrazolium-5-carboxyaniride inner salt; Sigma Chemical Co.) is added (final concentrations of 250 μg/ml for XTT and 5 μM for PMS). After incubating for 3 hours, the absorbance at 450 nm of each well is measured to calculate the cell viability by using the reduction ability of mitochondria as the index.
The viability of the cells in each well is calculated according to the following formula: Viability(%)=100×(a−b)/(c−b) wherein “a” is the measurement of a test well, “b” is the measurement of a well with no cells, and “c” is the measurement of a well with no antibody added.

CC(=O)O[C@H]1C(=O)[C@@]2(C)[C@H]([C@H](OC(=O)c3ccccc3)[C@]3(O)C[C@H](OC(=O)[C@H](O)[C@@H](NC(=O)c4ccccc4)c4ccccc4)C(C)=C1C3(C)C)[C@]1(OC(C)=O)CO[C@@H]1C[C@@H]2O [Paclitaxel]
TUNEL stained cells (2LMP xenografts; 100 μg TRA-8 days 7, 10, adriamycin 3 mg/kg or paclitaxel 10 mg/kg days 8, 11, untreated 4%): 7% | intensely stained cells (2LMP xenografts; same regimen, untreated 1%): 2% | cell viability remaining (PC-3 cells): more than 40% | Complete Regressions No relapse (%) ([1]; number of animals (%)): 0 | Complete Regressions Total (%) ([1]; number of animals (%)): 0 | Tumor Doubling Time (mean) ([1]; relative to day 7): 25 days | Tumor Doubling Time (median) ([1]; relative to day 7): 20 days

Cn1cc(C2=C(c3cn(CCCN)c4ccccc34)C(=O)NC2=O)c2ccccc21 [BisVIII, Bisindolylmaleimide VIII]
sensitivity to induced cytotoxicity (CLL B cells): sensitive

B1: humanized TRA-8: humanized TRA-8 of Example 20, cotransfection of pHB14-1 and pSR/M2-1 (H2 heavy, LM2 light chain) (antibody)
VH: EVMLVESGGGLVQPGGSLRLSCAASGFTFSSYVMSWVRQAPGKGLEWVATISSGGSYTYYPDSVKGRFTISRDNAKNTLYLQMNSLRAEDTAVYYCARRGDSMITTDYWGQGTLVTVSS
light: DIVMTQSPSSLSASVGDRVTITCKASQDVGTAVAWYQQKPGKAPKLLIYWASTRHTGVPSRFSGSGSGTDFTLTISSLQPEDFATYYCQQYSSYRTFGQGTKVEIKRTVAAPSVFIFPPSDEQLKSGTASVVCLLNNFYPREAKVQWKVDNALQSGNSQESVTEQDSKDSTYSLSSTLTLSKADYEKHKVYACEVTHQGLSSPVTKSFNRGEC
induction of apoptosis (Jurkat cells): induce apoptosis
